Measured values taken from US20070184490A1, “Neuronal nicotinic receptor ligands and their use” (priority 2006, published 2007).

What was measured:
[1] = biological target: T1, α4β2 neuronal nicotinic receptor subtype (Rattus norvegicus, UniProt P09483+P12390); test: [3H]-cytisine binding assay, rat brain membrane preparation; conditions: [3H]-cytisine binding site; read-out: binding affinity Ki
T1 construct: Membrane enriched fractions from rat brain minus cerebellum; tissue ABS Inc., Wilmington, DE; host or cells: rat brain minus cerebellum, membrane enriched fractions
Experimental: The method can be accomplished under any suitable binding conditions. […] IC50 and Ki values can be determined from data obtained in the [^3H]-cytisine binding assay.
Binding conditions were modified from the procedures described in Pabreza L A, Dhawan, S, Kellar K J, [^3H]-Cytisine Binding to Nicotinic Cholinergic Receptors in Brain, Mol. Pharm. 39: 9-12, 1991. Membrane enriched fractions from rat brain minus cerebellum (ABS Inc., Wilmington, DE) were slowly thawed at 4° C., washed and resuspended in 30 volumes of BSS-Tris buffer (120 mM NaCl/5 mM KCI/2 mM CaCl2/2 mM MgCl2/50 mM Tris-Cl, pH 7.4, 4° C.). Samples containing 100-200 μg of protein and 0.75 nM [^3H]-cytisine (30 Ci/mmol; Perkin Elmer/NEN Life Science Products, Boston, MA) were incubated in a final volume of 500 μL for 75 minutes at 4° C. Seven log-dilution concentrations of each compound were tested in duplicate. Non-specific binding was determined in the presence of 10 μM (−)-nicotine. Bound radioactivity was isolated by vacuum filtration onto prewetted glass fiber filter plates (Millipore, Bedford, MA) using a 96-well filtration apparatus (Packard Instruments, Meriden, CT) and were then rapidly rinsed with 2 mL of ice-cold BSS buffer (120 mM NaCl/5 mM KCl/2 mM CaCl2/2 mM MgCl2). Packard MicroScint-20® scintillation cocktail (40 μL) was added to each well and radioactivity determined using a Packard TopCount® instrument. The IC50 values were determined by nonlinear regression in Microsoft Excel® software. Ki values were calculated from the IC50s using the Cheng-Prusoff equation, where Ki=IC50/1+[Ligand]/KD].

adults with ADHD = conditions: transdermal, 32 adults; cited from earlier work

T1 sequence (P09483 31-630): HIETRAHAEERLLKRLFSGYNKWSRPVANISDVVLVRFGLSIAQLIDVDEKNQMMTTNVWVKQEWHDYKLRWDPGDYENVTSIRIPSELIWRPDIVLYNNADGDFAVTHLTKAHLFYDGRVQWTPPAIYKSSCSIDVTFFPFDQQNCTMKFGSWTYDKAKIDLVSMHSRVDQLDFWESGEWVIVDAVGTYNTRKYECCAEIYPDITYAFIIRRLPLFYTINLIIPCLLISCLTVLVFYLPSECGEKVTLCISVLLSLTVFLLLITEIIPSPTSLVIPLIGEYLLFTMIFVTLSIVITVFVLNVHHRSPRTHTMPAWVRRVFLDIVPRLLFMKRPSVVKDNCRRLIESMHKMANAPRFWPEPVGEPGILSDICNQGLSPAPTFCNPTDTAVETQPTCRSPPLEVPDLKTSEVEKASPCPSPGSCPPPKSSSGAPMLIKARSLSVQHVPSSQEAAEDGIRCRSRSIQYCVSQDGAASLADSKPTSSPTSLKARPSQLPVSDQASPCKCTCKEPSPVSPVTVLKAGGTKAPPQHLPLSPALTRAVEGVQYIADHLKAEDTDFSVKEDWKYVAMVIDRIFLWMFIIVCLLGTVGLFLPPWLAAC
T1 sequence (P12390 25-500): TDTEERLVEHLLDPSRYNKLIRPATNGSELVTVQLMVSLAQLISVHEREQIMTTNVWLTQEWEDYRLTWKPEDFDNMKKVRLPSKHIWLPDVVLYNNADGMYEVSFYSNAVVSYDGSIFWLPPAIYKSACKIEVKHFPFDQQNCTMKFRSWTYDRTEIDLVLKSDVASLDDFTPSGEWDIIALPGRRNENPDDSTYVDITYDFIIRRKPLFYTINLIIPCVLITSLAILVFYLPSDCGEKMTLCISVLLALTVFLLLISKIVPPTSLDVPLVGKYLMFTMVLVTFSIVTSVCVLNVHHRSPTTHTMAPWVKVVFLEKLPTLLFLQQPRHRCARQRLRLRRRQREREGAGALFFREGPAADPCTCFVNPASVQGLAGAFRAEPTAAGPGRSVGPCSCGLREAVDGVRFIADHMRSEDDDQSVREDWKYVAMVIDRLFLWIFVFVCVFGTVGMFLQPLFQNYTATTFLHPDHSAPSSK

Structure (SMILES)	Ki [1]	efficacy in treating ADHD (adults with ADHD)
c1ccc2ncc(N3CC4CNCC4C3)cc2c1 (stereo not shown)	1.5 nM	
Clc1ccc(-c2cc(OC[C@@H]3CCCN3)cnc2Cl)cc1	0.04 nM	
Cc1cc([C@@H]2CCCN2C)on1 [ABT-418]		effective in treating ADHD
c1cncc(N2CC[C@@H]3CNC[C@@H]32)c1 [(R,R)-1-(pyridin-3-yl)-octahydro-pyrrolo[3,4-b]pyrrole]	8.8 nM	
